Test: Solid-form stability under forced-air drying (XRPD)
Assay type: physicochemical
Conditions: drying at 90° C. for over 100 hours, under vacuum, in a stove
Description: Forced-air drying here means drying at 90° C. for over 100 hours, under vacuum, in a stove.

For `CNC(=O)c1ccc(N2C(=S)N(c3cnc(C#N)c(C(F)(F)F)c3)C(=O)C23CCC3)cc1F` [amorphous form obtained by evaporation of the solvent after ] [4-{7-[6-cyano-5-(trifluoromethyl)pyridin-3-yl]-8-oxo-6-sulphanylidene-5,7-diazaspiro[3,4]octan-5-yl}-2-fluoro-N-methylbenzamide], the “Stability of the amorphous form after forced-air drying” value was “converted to a mixture of amorphous form, form A and form B”.
For `CNC(=O)c1ccc(N2C(=S)N(c3cnc(C#N)c(C(F)(F)F)c3)C(=O)C23CCC3)cc1F` [stable amorphous form of apalutamide, 4-{7-[6-cyano-5-(trifluoromethyl)pyridin-3-yl]-8-oxo-6-sulphanylidene-5,7-diazaspiro[3,4]octan-5-yl}-2-fluoro-N-methylbenzamide], the “Stability of the amorphous form after forced-air drying” value was “stable”.
